Test results reported in patent US20010018956A1, “Multi-component system for modifying, degrading or bleaching lignin, lignin-containing materials or similar substances and processes for its use” (CONSORTIUM FUR ELEKTROCHEMISCHE INDUSTRIE GmbH, priority 1996, published 2001).

Assay: Enzymatic bleaching of softwood sulfate pulp with laccase and mediator; kappa number determined after NaOH extraction
Settings: laccase from Trametes versicolor 15 U/g of pulp; incubation time 2 hours; pH 4.5; 45° C.; oxygen pressure 1-10 bar; mediator dosage per 5 g of pulp as in table
Method: 5 g of bone-dry pulp (softwood O2 delignified), pulp consistency 30% (about 17 g moist) are added to the following solutions:
A) 56.5 mg of N-hydroxyacetanilide are added to 20 ml of tap water, while stirring, and the pH is adjusted with 0.5 mol/l of H2SO4 solution such that pH 4.5 results after addition of the pulp and the enzyme.
B) An amount of laccase from Trametes versicolor is added to 5 ml of tap water such that an activity of 15 U (1 U=conversion of 1 μmol of ABTS/minute/ml of enzyme) per g of pulp results.
Solutions A and B are brought together and topped up to 33 ml. After addition of the pulp, the mixture is mixed with a dough kneader for 2 minutes.
The pulp is then introduced into a reaction bomb preheated to 45° C. and incubated under an increased oxygen pressure of 1-10 bar for 1-4 hours.
Thereafter, the pulp is washed over a nylon screen (30 gm) and extracted for 1 hour at 60° C. at a pulp consistency of 2% with 8% of NaOH per g of pulp.
After renewed washing of the pulp, the kappa number is determined.

| SMILES | Ligin degradation [%] |
| --- | --- |
| O=C(Oc1ccccc1)N(O)c1ccccc1 [Phenyl N-hydroxy-N-phenylcarbamate] | 20.0 |
| CC(=O)N(O)c1ccc(C#N)cc1 [N-hydroxy-4-cyanoacetanilide] | 35.6 |
